Laboratory results as given in US20180148418A1, “AMIDO-SUBSTITUTED CYCLOHEXANE DERIVATIVES” (Bayer Pharma Aktiengesellschaft, priority 2015, published 2018).

What was measured:
[1] = tested on: wildtype Wnt signaling cascade; experiment: HEK293 TOP assay (Super TopFlash luciferase reporter, Wnt-3a stimulated); format: cell-based; settings: Homo sapiens, HEK293, 16 h, HEK293 TOP reporter cells, Wnt3a at EC50, 16 hours
Outline: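 Compound series (50 μM down to 15 nM, 3.16-fold) diluted from DMSO 50-fold into CAFTY buffer, pH 7.4, 2 mM Ca^2+, 0.01% BSA, applied to Wnt-3a-stimulated HEK293 TopFlash and FOP reporter lines in parallel. Cells seeded 10000/well 24 h before; luciferase signal measured.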

[2] = tested on: HEK293 cells cotransfected with the FOP control vector; experiment: HEK293 FOP assay (control reporter with non-functional TCF elements); format: cell-based; settings: Homo sapiens, 16 hours
Outline: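 Compound series from 50 μM down to 15 nM, prediluted in DMSO then 50-fold into CAFTY buffer (pH 7.4, 2 mM Ca2+, 0.01% BSA), tested alongside TOP cells on a Geneticin-selected HEK293 FOP line whose TCF elements are replaced by a random sequence; recombinant human Wnt-3a applied at 2500-5 ng/ml.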

TNKS2 = target: T1, TNKS2 (Homo sapiens, UniProt Q9H2K2); experiment: TNKS2 Assay B (auto-parsylation, [3H]-NAD+ SPA); format: biochemical; settings: 6 nM TNKS2, auto-parsylation, over night at room temperature
T1 construct: purchased BPS Bioscience, San Diego, USA 80572 (TNKS2 Histone Ribosylation Assay Kit)
T1 sequence (Q9H2K2 1-1166): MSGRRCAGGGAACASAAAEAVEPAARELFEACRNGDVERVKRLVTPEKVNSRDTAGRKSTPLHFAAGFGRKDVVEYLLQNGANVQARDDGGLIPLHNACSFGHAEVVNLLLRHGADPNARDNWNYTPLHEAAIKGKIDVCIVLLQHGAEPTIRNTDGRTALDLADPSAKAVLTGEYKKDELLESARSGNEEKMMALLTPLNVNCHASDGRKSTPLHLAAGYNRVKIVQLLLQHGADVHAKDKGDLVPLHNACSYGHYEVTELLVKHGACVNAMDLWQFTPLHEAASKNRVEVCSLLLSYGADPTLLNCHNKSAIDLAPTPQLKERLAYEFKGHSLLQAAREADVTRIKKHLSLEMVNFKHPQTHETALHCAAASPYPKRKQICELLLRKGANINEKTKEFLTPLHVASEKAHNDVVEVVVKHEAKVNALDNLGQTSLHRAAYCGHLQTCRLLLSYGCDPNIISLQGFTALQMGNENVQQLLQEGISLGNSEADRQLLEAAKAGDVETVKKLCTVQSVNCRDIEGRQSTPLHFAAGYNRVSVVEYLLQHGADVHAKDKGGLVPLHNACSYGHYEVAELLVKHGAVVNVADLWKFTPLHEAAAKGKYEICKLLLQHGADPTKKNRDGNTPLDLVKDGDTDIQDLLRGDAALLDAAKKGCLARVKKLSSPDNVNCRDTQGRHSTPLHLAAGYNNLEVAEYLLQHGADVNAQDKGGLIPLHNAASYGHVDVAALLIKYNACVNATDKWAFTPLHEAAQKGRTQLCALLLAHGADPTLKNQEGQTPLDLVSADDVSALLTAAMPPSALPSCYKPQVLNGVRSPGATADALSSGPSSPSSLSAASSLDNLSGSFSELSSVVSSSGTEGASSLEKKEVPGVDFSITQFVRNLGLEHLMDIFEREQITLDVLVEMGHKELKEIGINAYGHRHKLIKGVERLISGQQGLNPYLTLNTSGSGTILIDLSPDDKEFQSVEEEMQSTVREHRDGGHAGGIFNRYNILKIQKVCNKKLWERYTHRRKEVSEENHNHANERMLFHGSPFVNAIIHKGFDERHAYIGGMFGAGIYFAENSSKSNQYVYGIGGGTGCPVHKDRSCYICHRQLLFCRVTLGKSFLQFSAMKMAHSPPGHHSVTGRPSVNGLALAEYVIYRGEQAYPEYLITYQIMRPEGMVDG

SMILES: O=C(NC1CCC2(CC1)CCN(c1cc(F)c(F)cc1Cl)C2=O)c1cnn2cccnc12 (single isomer, unassigned; isomer 1) [Example 168, N-[2-(2-chloro-4,5-difluorophenyl)-1-oxo-2-azaspiro[4.5]dec-8-yl]pyrazolo[1,5-a]pyrimidine-3-carboxamide (isomer 1)]
- IC50 [1]: 0.23 nM
- IC50 [2]: ≥ 50000 nM
- IC50 (TNKS2): 3.1 nM

SMILES: CNC(=O)c1nc[nH]c1C(=O)N[C@H]1CC[C@H](C(=O)Nc2cccnc2Cl)CC1 [Example 10, N^5-{trans-4-[(2-chloropyridin-3-yl)carbamoyl]cyclohexyl}-N^4-methyl-1H-imidazole-4,5-dicarboxamide]
- IC50 [1]: 90 nM
- IC50 [2]: ≥ 50000 nM
- IC50 (TNKS2): 240 nM

SMILES: CNC(=O)c1nc[nH]c1C(=O)N[C@H]1CC[C@H](C(=O)Nc2ccncc2Cl)CC1 [Example 11, N^5-{trans-4-[(3-chloropyridin-4-yl)carbamoyl]cyclohexyl}-N^4-methyl-1H-imidazole-4,5-dicarboxamide]
- IC50 [1]: 140 nM
- IC50 [2]: ≥ 50000 nM
- IC50 (TNKS2): 210 nM

SMILES: CC1CCN(CCNC(=O)c2nc[nH]c2C(=O)N[C@H]2CC[C@H](C(=O)Nc3ccc(F)cc3Cl)CC2)CC1 [Example 12, N^5-{trans-4-[(2-chloro-4-fluorophenyl)carbamoyl]cyclohexyl}-N^4-[2-(4-methylpiperidin-1-yl)ethyl]-1H-imidazole-4,5-dicarboxamide]
- IC50 [1]: 72 nM
- IC50 [2]: ≥ 50000 nM
- IC50 (TNKS2): 7.2 nM

SMILES: O=C(NCCN1CCOCC1)c1nc[nH]c1C(=O)N[C@H]1CC[C@H](C(=O)Nc2ccc(F)cc2Cl)CC1 [Example 13, N^5-{trans-4-[(2-chloro-4-fluorophenyl)carbamoyl]cyclohexyl}-N^4-[2-(morpholin-4-yl)ethyl]-1H-imidazole-4,5-dicarboxamide]
- IC50 [1]: 95 nM
- IC50 [2]: ≥ 50000 nM
- IC50 (TNKS2): 19 nM

SMILES: O=C(N[C@H]1CC[C@H](C(=O)Nc2ccc(F)cc2Cl)CC1)c1[nH]cnc1C(=O)N1CC2(COC2)C1 [Example 14, N-{trans-4-[(2-chloro-4-fluorophenyl)carbamoyl]cyclohexyl}-4-(2-oxa-6-azaspiro[3.3]hept-6-ylcarbonyl)-1H-imidazole-5-carboxamide]
- IC50 [1]: 120 nM
- IC50 [2]: ≥ 50000 nM
- IC50 (TNKS2): 37 nM

SMILES: CCNC(=O)c1nc[nH]c1C(=O)N[C@H]1CC[C@H](C(=O)Nc2ccc(F)cc2Cl)CC1 [Example 15, N^5-{trans-4-[(2-chloro-4-fluorophenyl)carbamoyl]cyclohexyl}-N^4-ethyl-1H-imidazole-4,5-dicarboxamide]
- IC50 [1]: 71 nM
- IC50 [2]: ≥ 50000 nM
- IC50 (TNKS2): 42 nM

SMILES: CN(C)C(=O)c1nc[nH]c1C(=O)N[C@H]1CC[C@H](C(=O)Nc2ccc(F)cc2Cl)CC1 [Example 16, N^5-{trans-4-[(2-chloro-4-fluorophenyl)carbamoyl]cyclohexyl}-N^4,N^4-dimethyl-1H-imidazole-4,5-dicarboxamide]
- IC50 [1]: 1400 nM
- IC50 [2]: ≥ 50000 nM
- IC50 (TNKS2): 1200 nM

SMILES: O=C(NC1CC1)c1nc[nH]c1C(=O)N[C@H]1CC[C@H](C(=O)Nc2ccc(F)cc2Cl)CC1 [Example 17, N^5-{trans-4-[(2-chloro-4-fluorophenyl)carbamoyl]cyclohexyl}-N^4-cyclopropyl-1H-imidazole-4,5-dicarboxamide]
- IC50 [1]: 49 nM
- IC50 [2]: ≥ 50000 nM
- IC50 (TNKS2): 90 nM

SMILES: O=C(NCCO)c1nc[nH]c1C(=O)N[C@H]1CC[C@H](C(=O)Nc2ccc(F)cc2Cl)CC1 [Example 18, N^5-{trans-4-[(2-chloro-4-fluorophenyl)carbamoyl]cyclohexyl}-N^4-(2-hydroxyethyl)-1H-imidazole-4,5-dicarboxamide]
- IC50 [1]: 150 nM
- IC50 [2]: ≥ 50000 nM
- IC50 (TNKS2): 120 nM

SMILES: COCCNC(=O)c1nc[nH]c1C(=O)N[C@H]1CC[C@H](C(=O)Nc2ccc(F)cc2Cl)CC1 [Example 19, N^5-{trans-4-[(2-chloro-4-fluorophenyl)carbamoyl]cyclohexyl}-N^4-(2-methoxyethyl)-1H-imidazole-4,5-dicarboxamide]
- IC50 [1]: 89 nM
- IC50 [2]: ≥ 50000 nM
- IC50 (TNKS2): 160 nM

SMILES: CC(C)NC(=O)c1nc[nH]c1C(=O)N[C@H]1CC[C@H](C(=O)Nc2ccc(F)cc2Cl)CC1 [Example 20, N^5-{trans-4-[(2-chloro-4-fluorophenyl)carbamoyl]cyclohexyl}-N^4-isopropyl-1H-imidazole-4,5-dicarboxamide]
- IC50 [1]: 220 nM
- IC50 [2]: ≥ 50000 nM
- IC50 (TNKS2): 130 nM

SMILES: O=C(NCC(F)(F)F)c1nc[nH]c1C(=O)N[C@H]1CC[C@H](C(=O)Nc2ccc(F)cc2Cl)CC1 [Example 21, N^5-{trans-4-[(2-chloro-4-fluorophenyl)carbamoyl]cyclohexyl}-N^4-(2,2,2-trifluoroethyl)-1H-imidazole-4,5-dicarboxamide]
- IC50 [1]: 79 nM
- IC50 [2]: ≥ 50000 nM
- IC50 (TNKS2): 83 nM

SMILES: O=C(N[C@H]1CC[C@@]2(CCN(c3ccc(F)cc3Cl)C2=O)CC1)c1[nH]cnc1C(=O)N1CCN(CC(F)(F)F)CC1 [Example 167, N-[(trans)-2-(2-chloro-4-fluorophenyl)-1-oxo-2-azaspiro[4.5]dec-8-yl]-4-{[4-(2,2,2-trifluoroethyl)piperazin-1-yl]carbonyl}-1H-imidazole-5-carboxamide]
- IC50 [1]: 130 nM
- IC50 [2]: ≥ 50000 nM
- IC50 (TNKS2): 270 nM

SMILES: Cc1cc(C)n2ncc(C(=O)N[C@H]3CC[C@H](C(=O)Nc4cnccc4Cl)CC3)c2n1 [Example 169, N-{trans-4-[(4-chloropyridin-3-yl)carbamoyl]cyclohexyl}-5,7-dimethylpyrazolo[1,5-a]pyrimidine-3-carboxamide]
- IC50 [1]: 33 nM
- IC50 [2]: ≥ 50000 nM
- IC50 (TNKS2): 14 nM

SMILES: CNC(=O)c1nc[nH]c1C(=O)N[C@H]1CC[C@H](C(=O)Nc2cc(C(C)(C)O)ccc2Cl)CC1 [Example 170, N^5-(trans-4-{[2-chloro-5-(2-hydroxypropan-2-yl)phenyl]carbamoyl}cyclohexyl)-N^4-methyl-1H-imidazole-4,5-dicarboxamide]
- IC50 [1]: 2000 nM
- IC50 [2]: ≥ 50000 nM
- IC50 (TNKS2): 1500 nM

SMILES: CNC(=O)c1nc[nH]c1C(=O)N[C@H]1CC[C@H](C(=O)N(C)c2ccccc2)CC1 [Example 171, N^4-methyl-N^5-{trans-4-[methyl(phenyl)carbamoyl]cyclohexyl}-1H-imidazole-4,5-dicarboxamide]
- IC50 [1]: 450 nM
- IC50 [2]: ≥ 50000 nM
- IC50 (TNKS2): 150 nM

SMILES: CNC(=O)c1nc[nH]c1C(=O)N[C@H]1CC[C@H](C(=O)N(C)c2ccc(F)cc2)CC1 [Example 172, N^5-{trans-4-[(4-fluorophenyl)(methyl)carbamoyl]cyclohexyl}-N^4-methyl-1H-imidazole-4,5-dicarboxamide]
- IC50 [1]: 410 nM
- IC50 [2]: ≥ 50000 nM
- IC50 (TNKS2): 510 nM

SMILES: CNC(=O)c1nc[nH]c1C(=O)N[C@H]1CC[C@H](C(=O)N(C)c2ccc(F)cc2Cl)CC1 [Example 173, N^5-{trans-4-[(2-chloro-4-fluorophenyl)(methyl)carbamoyl]cyclohexyl}-N^4-methyl-1H-imidazole-4,5-dicarboxamide]
- IC50 [1]: 190 nM
- IC50 [2]: ≥ 50000 nM
- IC50 (TNKS2): 180 nM

SMILES: Cc1cc(N(C)C(=O)[C@H]2CC[C@H](NC(=O)c3cnn4cccnc34)CC2)c(Cl)cc1F [Example 176, N-{trans-4-[(2-chloro-4-fluoro-5-methylphenyl)(methyl)carbamoyl]cyclohexyl}pyrazolo[1,5-a]pyrimidine-3-carboxamide]
- IC50 [1]: 350 nM
- IC50 [2]: 5300 nM
- IC50 (TNKS2): 130 nM

SMILES: O=C(N[C@H]1CC[C@H](C(=O)N(CC2CC2)c2ccc(F)cc2Cl)CC1)c1cnn2cccnc12 [Example 177, N-{trans-4-[(2-chloro-4-fluorophenyl)(cyclopropylmethyl)carbamoyl]cyclohexyl}pyrazolo[1,5-a]pyrimidine-3-carboxamide]
- IC50 [1]: 71 nM
- IC50 [2]: 40000 nM
- IC50 (TNKS2): 9.2 nM
